Assay: MicroPET imaging and organ uptake quantification after tail vein injection in normal nude mice
Type: in vivo, mouse
Description: All animal studies were approved by the University of Southern California Institutional Animal Care and Use Committee. Female athymic nude mice (about 4-6 weeks old, with a body weight of 20-25 g) were obtained from Harlan Laboratories (Livermore, Calif.). MicroPET scans were performed using an Inveon microPET scanner (Siemens Medical Solutions, Malvern, Pa., USA). A normal nude mouse was anesthetized using 2% isoflurane and injected with 1.3-2.5 MBq of [^18F]-ClFMBP via tail vein. At 0.5, 1, and 2 h post injection, static emission scans were acquired for 10 min. Raw PET images were reconstructed using 2D ordered subset expectation maximization (OSEM) algorithms with scatter, random and attenuation correction.
The 2D projection of PET images at 2 h post-injection is shown.
Accumulation of [^18F]-ClFMBP in other mouse organs was minimal.

[1] = microPET quantification, 2 h post-injection, tail vein, normal nude mice

SMILES: O=P(O)(O)C([18F])(Cl)P(=O)(O)O [[^18F]-ClFMBP, (chloro[^18F]-fluoromethylene)bisphosphonic acid]
- visibility of joints and bones in microPET images (0.5, 1 and 2 h post-injection, normal nude mice): clearly visible with high contrast to contralateral background
- uptake of radioactivity in the bladder (microPET images, normal nude mice): Predominant uptake
- accumulation in other mouse organs (microPET quantification, 2 h post-injection): minimal
- uptake in bones [1]: 2.72±0.05 % ID/g
- uptake in joints [1]: 2.37±0.08 % ID/g
- uptake in mouse kidneys [1]: 0.16±0.08 % ID/g
- uptake in mouse liver [1]: 0.21±0.04 % ID/g
- route of excretion (suggested by bladder uptake in microPET images): mainly through the renal system

— patent US20200206370A1, “18F-LABELED BISPH[…] PET IMAGING” (University of Southern California, priority 2016, published 2020)
